Patent publication US20150337013A1, “NOVEL ANTIBACTERIAL AGENTS FOR THE TREATMENT OF GRAM POSITIVE INFECTIONS” (priority 2008, published 2015)
Several values for one entry are separate records, joined by “and”; a condition that tells them apart may be missing. Equal values may be shown once. Read-outs that look alike come from different tables or passages of the source.

Assays:
[1] = tested on: gram positive bacteria; assay: Antimicrobial activity against a panel of organisms, summary statements; format: cell-based; details: statement in words
Experimental: Compounds according to Formula I were tested for antimicrobial activity against a panel of organisms. Aerobic organisms, Staphylococcus aureus, Enterococcus faecalis and E. faecium, were tested by broth microdilution according to Clinical and Laboratory Standards Institute (CLSI) document M7-A7 (Clinical and Laboratory Standards Institute. Methods for Dilution Antimicrobial Susceptibility Tests for Bacteria that Grow Aerobically; Approved Standard—Seventh Edition. CLSI document M7-A7 [ISBN 1-56238-587-9]. Clinical and Laboratory Standards Institute, 940 West Valley Road, Suite 1400, Wayne, Pa. 19087-1898 USA, 2006) with modifications as described below. Mueller Hinton Broth (MHBc) was supplemented with 50 mg/L calcium (equivalent to human physiological levels of calcium) and assay plates were incubated 18-20 hours at 37° C. with aeration (200 rpm).
In all cases the final concentration of dimethyl sulfoxide incubated with cells is less than or equal to 1%. For minimum inhibitory concentration (MIC) calculations, 2-fold dilutions of compounds were added to wells of a microtiter plate containing 5×10^5 bacteria in a final volume of 100 μL of media. Following incubation, (18-20 hours at 37° C. with aeration at 200 rpm) growth was confirmed visually by placing plates over a viewing apparatus (stand with a mirror underneath) and then the optical density (OD600) was measured using a SpectraMax 340PC^384 plate reader. Growth was defined as turbidity that could be detected with the naked eye or achieving minimum OD600of 0.1. MIC values (in μg/mL) were defined as the lowest concentration producing no visible turbidity.

[2] = tested on: C. difficile spores (ATCC #43596); assay: Hamster C. difficile infection (CDAD) protection model; format: in vivo, Syrian golden hamsters; details: oral 0.5 mg/kg once daily for 5 days (MET 70 mg/kg three times daily for 5 days)
Experimental: Syrian golden hamsters were pretreated with 10 mg/kg clindamycin subcutaneously 24 hours before bacterial challenge. An inoculum of 20 C. difficile spores (ATCC #43596) in sterile saline was administered orally. Treatment was initiated 4 hours post-inoculation with dH2O, metronidazole (MET), vancomycin (VAN), or a compound of the present invention. Oral dosing regimens for VAN and compounds of Formula I were 0.5 mg/kg once daily for 5 days. MET was administered at 70 mg/kg three times daily for 5 days. CDAD was confirmed as the cause of death by observations at necropsy, including wet tail and/or macroscopic cecal alterations. The % protection provided by each therapy tested was calculated at 1 and 21 days post-dosing.

[3] = tested on: Enterococcus faecalis EFS.312, Daptomycin resistant mutant (EFA); format: cell-based; details: MHBc with 50 mg/L calcium, 18-20 hours at 37° C.
Method in brief: (§1)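 MIC in μg/mL, taken as the lowest compound concentration producing no visible turbidity after 18-20 hours at 37° C with shaking at 200 rpm. Organisms were grown in calcium-supplemented (50 mg/L) Mueller Hinton broth at 5×10^5 bacteria per well.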

[4] = tested on: Staphylococcus aureus SAU.278, Daptomycin resistant mutant (D10); format: cell-based; details: MHBc with 50 mg/L calcium, 18-20 hours at 37° C.
Method in brief: as §1

[5] = tested on: Enterococcus faecium EFM.384, Daptomycin resistant mutant (14-A); format: cell-based; details: MHBc with 50 mg/L calcium, 18-20 hours at 37° C.
Method in brief: as §1

[6] = tested on: Staphylococcus aureus SAU.42 (ATCC 29213); format: cell-based
Method in brief: as §1

[7] = tested on: Clostridium difficile
[8] = tested on: Staphylococcus aureus SAU.399 (ATCC 43300), Methicillin and Oxacillin Resistant; format: cell-based
Method in brief: as §1

[9] = tested on: Enterococcus faecium EFM.14 (ATCC 6569); format: cell-based
Method in brief: as §1

[10] = tested on: Enterococcus faecalis EFS.201 (ATCC 49452); format: cell-based
Method in brief: as §1

[11] = MHBc with 50 mg/L calcium, 18-20 hours at 37° C.

Structure (SMILES)	as active or more active than daptomycin [1]	Mean % Protection 1 Day Post Dosing [2] [%]	Mean % Protection 21 Days Post Dosing [2] [%]	Efs312 MIC [3]	Sa278 MIC [4]	Efm384 MIC [5]	Sa42 MIC ([6]; ATCC 29213) [µg/mL]	C. diff MIC90 [7] [µg/mL]	Sa399 MIC ([8]; ATCC 43300) [µg/mL]	Efm14 MIC ([9]; ATCC 6569) [µg/mL]	Efs201 MIC ([10]; ATCC 49452) [µg/mL]	Sa42 MIC [6, 11] [µg/mL]	Sa399 MIC [8, 11] [µg/mL]	Efm14 MIC [9, 11] [µg/mL]	Efs201 MIC [10, 11] [µg/mL]
CCCCCC1CCC(C(=O)N[C@@H](Cc2c[nH]c3ccccc23)C(=O)N[C@H](CC(N)=O)C(=O)N[C@@H](CC(=O)O)C(=O)N[C@@H]2C(=O)NCC(=O)N[C@@H](CCCN)C(=O)N[C@@H](CC(=O)O)C(=O)N[C@H](C)C(=O)N[C@@H](CC(=O)O)C(=O)NCC(=O)N[C@H](CO)C(=O)N[C@@H]([C@H](C)CC(=O)O)C(=O)N[C@@H](CC(=O)c3ccccc3N)C(=O)O[C@@H]2C)CC1 (stereo partly drawn) [Compound 16]	as active or more active than daptomycin	100	85	16 µg/mL and >32 µg/mL	8 µg/mL	32 µg/mL and 16 µg/mL	0.5								
C[C@H](CC(=O)O)[C@@H]1NC(=O)[C@@H](CO)NC(=O)CNC(=O)[C@H](CC(=O)O)NC(=O)[C@@H](C)NC(=O)[C@H](CC(=O)O)NC(=O)[C@H](CCCN)NC(=O)CNC(=O)[C@@H](NC(=O)[C@H](CC(=O)O)NC(=O)[C@@H](CC(N)=O)NC(=O)[C@H](Cc2c[nH]c3ccccc23)NC(=O)C2CCCCCCCCCCC2)[C@@H](C)OC(=O)[C@H](CC(=O)c2ccccc2N)NC1=O [Compound 28, N-cyclododecanecarbonyl-L-tryptophyl-D-asparaginyl-L-α-aspartyl-L-threonylglycyl-L-ornithyl-L-α-aspartyl-D-alanyl-L-α-aspartylglycyl-D-seryl-(3R)-3-methyl-L-α-glutamyl-(αS)-α,2-diamino-γ-oxobenzenebutanoic acid (13→4)-lactone]	as active or more active than daptomycin	100	100	>32 µg/mL	4 µg/mL and 8 µg/mL	32 µg/mL		4							
C[C@H](CC(=O)O)[C@@H]1NC(=O)[C@@H](CO)NC(=O)CNC(=O)[C@H](CC(=O)O)NC(=O)[C@@H](C)NC(=O)[C@H](CC(=O)O)NC(=O)[C@H](CCCN)NC(=O)CNC(=O)[C@@H](NC(=O)[C@H](CC(=O)O)NC(=O)[C@@H](CC(N)=O)NC(=O)[C@H](Cc2c[nH]c3ccccc23)NC(=O)C2CCC(c3ccc(Cl)cc3)CC2)[C@@H](C)OC(=O)[C@H](CC(=O)c2ccccc2N)NC1=O (stereo partly drawn) [Compound 67]				>32 µg/mL	4 µg/mL	>32 µg/mL	0.5	4	4	8	4				
C[C@H](CC(=O)O)[C@@H]1NC(=O)[C@@H](CO)NC(=O)CNC(=O)[C@H](CC(=O)O)NC(=O)[C@@H](C)NC(=O)[C@H](CC(=O)O)NC(=O)[C@H](CCCN)NC(=O)CNC(=O)[C@@H](NC(=O)[C@H](CC(=O)O)NC(=O)[C@@H](CC(N)=O)NC(=O)[C@H](Cc2c[nH]c3ccccc23)NC(=O)c2ccc(-c3ccc(-c4ccccc4)cc3)cc2)[C@@H](C)OC(=O)[C@H](CC(=O)c2ccccc2N)NC1=O [Compound 69]				32 µg/mL	0.125 µg/mL	4 µg/mL		2				0.125	0.125	0.5	0.5
C[C@H](CC(=O)O)[C@@H]1NC(=O)[C@@H](CO)NC(=O)CNC(=O)[C@H](CC(=O)O)NC(=O)[C@@H](C)NC(=O)[C@H](CC(=O)O)NC(=O)[C@H](CCCN)NC(=O)CNC(=O)[C@@H](NC(=O)[C@H](CC(=O)O)NC(=O)[C@@H](CC(N)=O)NC(=O)[C@H](Cc2c[nH]c3ccccc23)NC(=O)c2cc(-c3ccc(Cl)cc3)cs2)[C@@H](C)OC(=O)[C@H](CC(=O)c2ccccc2N)NC1=O [Compound 70]				>32 µg/mL	>32 µg/mL	>32 µg/mL	8	16	8	>32	>32				
C[C@H](CC(=O)O)[C@@H]1NC(=O)[C@@H](CO)NC(=O)CNC(=O)[C@H](CC(=O)O)NC(=O)[C@@H](C)NC(=O)[C@H](CC(=O)O)NC(=O)[C@H](CCCN)NC(=O)CNC(=O)[C@@H](NC(=O)[C@H](CC(=O)O)NC(=O)[C@@H](CC(N)=O)NC(=O)[C@H](Cc2c[nH]c3ccccc23)NC(=O)/C=C/c2ccc(-c3ccccc3)cc2)[C@@H](C)OC(=O)[C@H](CC(=O)c2ccccc2N)NC1=O [Compound 71]				>32 µg/mL	32 µg/mL	>32 µg/mL		16				2	2	16	8
C[C@H](CC(=O)O)[C@@H]1NC(=O)[C@@H](CO)NC(=O)CNC(=O)[C@H](CC(=O)O)NC(=O)[C@@H](C)NC(=O)[C@H](CC(=O)O)NC(=O)[C@H](CCCN)NC(=O)CNC(=O)[C@@H](NC(=O)[C@H](CC(=O)O)NC(=O)[C@@H](CC(N)=O)NC(=O)[C@H](Cc2c[nH]c3ccccc23)NC(=O)C2(c3ccc(Cl)cc3)CCCCC2)[C@@H](C)OC(=O)[C@H](CC(=O)c2ccccc2N)NC1=O [Compound 72]				>32 µg/mL	>32 µg/mL	>32 µg/mL	>32	32	>32	>32	>32				
CCCCCCCCCC(=O)N[C@@H](Cc1c[nH]c2ccccc12)C(=O)N[C@H](CC(N)=O)C(=O)N[C@@H](CC(=O)O)C(=O)N[C@@H]1C(=O)NCC(=O)N[C@@H](CCCN)C(=O)N[C@@H](CC(=O)O)C(=O)N[C@H](C)C(=O)N[C@@H](CC(=O)O)C(=O)NCC(=O)N[C@H](CO)C(=O)N[C@@H]([C@H](C)CC(=O)O)C(=O)N[C@@H](CC(=O)c2ccccc2N)C(=O)O[C@@H]1C [Daptomycin, reference compound]				>32 µg/mL	8 µg/mL	>32 µg/mL	0.5	2	0.5	4	2				
Cc1ncc([N+](=O)[O-])n1CCO [Metronidazole, 2-methyl-5-nitro-1H-imidazole-1-ethanol, reference compound]		100	0												
CN[C@H](CC(C)C)C(=O)N[C@H]1C(=O)N[C@@H](CC(N)=O)C(=O)N[C@H]2C(=O)N[C@H]3C(=O)N[C@H](C(=O)N[C@H](C(=O)O)c4cc(O)cc(O)c4-c4cc3ccc4O)[C@H](O)c3ccc(c(Cl)c3)Oc3cc2cc(c3O[C@@H]2O[C@H](CO)[C@@H](O)[C@H](O)[C@H]2O[C@H]2C[C@](C)(N)[C@H](O)[C@H](C)O2)Oc2ccc(cc2Cl)[C@H]1O [Vancomycin, vancomycin, reference compound]		90	62												
